According to patent US12612412B2, “Antiviral heterocyclic compounds” (Enanta Pharmaceuticals, Inc., priority 2021, dated 2026):

test system: genotype A, "Long" strain RSV; assay: RSV-A assay (CPE protection in Hep-2 cells, ATPlite readout); type: cell-based, Human respiratory syncytial virus (HRSV); conditions: human respiratory syncytial virus, genotype A “Long” strain RSV, MOI 0.1, CPE protection, read-out: Human RSV-A (“Long”)
Excerpt: Hep-2 cells, (originally derived from tumors grown in irradiated-cortisonised weanling rats that had been injected with epidermoid carcinoma tissue from the larynx of a person, but later found to be indistinguishable from HeLa cells by PCR DNA analysis), were used for the culturing of genotype A, “Long” strain RSV. Flasks were inoculated with RSV and viral stocks were collected once cytopathic effect (CPE) was greater than 90%. Viral stocks in 25% sucrose media were snap frozen using liquid nitrogen to increase viral stability. Viral stock titers were quantified by tissue culture infectious dose 50% (TCID50) using 8,000 cells per well and 3-fold viral dilutions across a 96-well plate, cultured for 4 days. Viral stock titers were also quantified by a plaque forming unit assay, as described elsewhere.
Following extensive parameter testing, the final assay is run as follows: Hep-2 cells are seeded into the inner 60 wells of a 96-well plate at 8,000 cells per well in a volume of 50 μL using Growth Media (DMEM without phenol red, 1% L-Glut, 1% Penn/Strep, 1% nonessential amino acids, 10% heat-inactivated FBS). 2-fold serial dilutions of control and test compounds are added to the wells in duplicate in a total volume of 25 μL. Viral stock is then added to the wells at a multiplicity of infection (MOI) of 0.1 in a volume of 25 μL, bringing the total volume of each well to 100 μL. The MOI is calculated using the PFU/mL, or TCID50 if unavailable. Each 96-well plate has a control column of 6 wells with cells and virus but no compound (negative control, max CPE), a column with cells but no compound or virus (positive control, minimum CPE), and a column with no cells or virus or compound (background plate/reagent control). The control wells with cells but no virus are given an additional 25 μL of growth media containing an equal quantity of sucrose as those wells receiving the viral stock in order to keep consistent in media and volume conditions. The outer wells of the plate are filled with 125 μL of moat media (DMEM, 1% Penn/Strep) to act as a thermal and evaporative moat around the test wells. Following a 5-day incubation period, the plates are read using ATPlite (50 uL added per well), which quantifies the amount of ATP (a measure of cell health) present in each well. Assay plates are read using the Envision luminometer. […] EC50 ranges are as follows: A<0.2 μM; B>0.2 μM.

Compound | EC50
COc1cc(C(=O)NC[C@](O)(c2cc3c(c(-c4ccc(F)cc4)n2)OC[C@]3(C)C(N)=O)C(F)(F)F)cc2cc(C)c(C(=O)O)nc12 [Example 5] | > 200 nM
Cn1nc(F)c2cc(C(=O)NC[C@](O)(c3cc4c(c(-c5ccc(F)cc5)n3)OC[C@]4(C)C(N)=O)C(F)(F)F)ccc21 [Example 31] | > 200 nM
C[C@]1(C(N)=O)COc2c1cc([C@@](O)(CNC(=O)c1ccn3cc(C4CC4)nc3c1)C(F)(F)F)nc2-c1ccc(F)cc1 [Example 33] | > 200 nM
Cc1ccc2cc(C(=O)NC[C@](O)(c3cc4c(c(-c5ccc(F)cc5)n3)OC[C@]4(C)C(N)=O)C(F)(F)F)cc(N3CCCC3=O)c2n1 [Example 38] | > 200 nM
Cc1ccc2cc(C(=O)NC[C@](O)(c3cc4c(c(-c5ccc(F)c(Cl)c5)n3)OC[C@]4(C)C(N)=O)C(F)(F)F)cc(N3CCCC3=O)c2n1 [Example 39] | > 200 nM
C[C@]1(C(N)=O)COc2c1cc([C@@](O)(CNC(=O)c1ccc3nc(N)cn3c1)C(F)(F)F)nc2-c1ccc(F)cc1 [Example 56] | > 200 nM
CC(C)(O)c1cn2cc(C(=O)NC[C@](O)(c3cc4c(c(-c5ccc(F)cc5)n3)OC[C@]4(C)C(N)=O)C(F)(F)F)cc(F)c2n1 [Example 66] | > 200 nM
COc1cc(C(=O)NC[C@](O)(c2cc3c(c(-c4ccc(F)cc4)n2)OC[C@]3(C)C(N)=O)C(F)(F)F)cc2cc(C(=O)O)c(C)nc12 [Example 76] | > 200 nM
C[C@]1(C(N)=O)COc2c1cc([C@@](O)(CNC(=O)c1cc(F)c3nc(C(N)=O)cn3c1)C(F)(F)F)nc2-c1ccc(F)cc1 [Example 79] | > 200 nM
C[C@]1(C(N)=O)COc2c1cc([C@@](O)(CNC(=O)c1cc(F)c3oc(N)nc3c1)C(F)(F)F)nc2-c1ccc(F)cc1 [Example 90] | < 200 nM
C[C@]1(C(N)=O)COc2c1cc([C@@](O)(CNC(=O)c1cc(F)c3[nH]c(C4CC4)nc3c1)C(F)(F)F)nc2-c1ccc(F)cc1 [Example 93] | < 200 nM
C[C@]1(C(N)=O)COc2c1cc([C@@](O)(CNC(=O)c1cc(Cl)c3nnc(C(F)(F)F)cc3c1)C(F)(F)F)nc2-c1ccc(F)cc1 [Example 98] | < 200 nM
COc1cc(C(=O)NC[C@](O)(c2cc3c(c(-c4ccc(F)cc4)n2)OC[C@]3(C)C(N)=O)C(F)(F)F)cc2cn(CC(F)(F)F)nc12 [Example 99] | < 200 nM
Cc1c(C(=O)NC[C@](O)(c2cc3c(c(-c4ccc(F)cc4)n2)OC[C@]3(C)C(N)=O)C(F)(F)F)ccc2[nH]ncc12 [Example 101] | < 200 nM
C[C@]1(C(N)=O)COc2c1cc([C@@](O)(CNC(=O)c1cc(F)c3[nH]ncc3c1)C(F)(F)F)nc2-c1ccc(F)cc1 [Example 104] | < 200 nM
C[C@]1(C(N)=O)COc2c1cc([C@@](O)(CNC(=O)c1cc3cn[nH]c3cc1Cl)C(F)(F)F)nc2-c1ccc(F)cc1 [Example 106] | > 200 nM
C[C@]1(C(N)=O)COc2c1cc([C@@](O)(CNC(=O)c1ccc3[nH]nnc3c1)C(F)(F)F)nc2-c1ccc(F)cc1 [Example 107] | > 200 nM
C[C@]1(C(N)=O)COc2c1cc([C@@](O)(CNC(=O)c1ccc3nncn3c1)C(F)(F)F)nc2-c1ccc(F)cc1 [Example 109] | > 200 nM
C[C@]1(C(N)=O)COc2c1cc([C@@](O)(CNC(=O)c1ccc3nnnn3c1)C(F)(F)F)nc2-c1ccc(F)cc1 [Example 110] | > 200 nM
C[C@]1(C(N)=O)COc2c1cc([C@@](O)(CNC(=O)c1cc(O)c3[nH]ncc3c1)C(F)(F)F)nc2-c1ccc(F)cc1 [Example 111] | > 200 nM
Cc1cnc2c(Nc3ccc(C(C)C)nn3)cc(C(=O)NC[C@](O)(c3cc4c(c(-c5ccc(F)cc5)n3)OC[C@]4(C)C(N)=O)C(F)(F)F)cc2c1 [Example 115] | < 200 nM
Cc1cnc2c(Nc3ccc(C(F)(F)F)nn3)cc(C(=O)NC[C@](O)(c3cc4c(c(-c5ccc(F)cc5)n3)OC[C@]4(C)C(N)=O)C(F)(F)F)cc2c1 [Example 116] | < 200 nM
CCc1ccc(Nc2cc(C(=O)NC[C@](O)(c3cc4c(c(-c5ccc(F)cc5)n3)OC[C@]4(C)C(N)=O)C(F)(F)F)cc3cc(C)cnc23)nn1 [Example 117] | < 200 nM
Cc1cnc2c(Nc3ccc(C(C)(C)C)nn3)cc(C(=O)NC[C@](O)(c3cc4c(c(-c5ccc(F)cc5)n3)OC[C@]4(C)C(N)=O)C(F)(F)F)cc2c1 [Example 118] | < 200 nM
Cc1cnc2c(Nc3ccc(F)nn3)cc(C(=O)NC[C@](O)(c3cc4c(c(-c5ccc(F)cc5)n3)OC[C@]4(C)C(N)=O)C(F)(F)F)cc2c1 [Example 119] | < 200 nM
Cc1cc(C(=O)NC[C@](O)(c2cc3c(c(-c4ccc(F)cc4)n2)OC[C@]3(C)C(N)=O)C(F)(F)F)cc2cn[nH]c12 [Example 122] | < 200 nM
CC(C)c1cc(C(=O)NC[C@](O)(c2cc3c(c(-c4ccc(F)cc4)n2)OC[C@]3(C)C(N)=O)C(F)(F)F)cc2cn[nH]c12 [Example 123] | < 200 nM
CC(C)c1cc2[nH]ncc2cc1C(=O)NC[C@](O)(c1cc2c(c(-c3ccc(F)cc3)n1)OC[C@]2(C)C(N)=O)C(F)(F)F [Example 125] | > 200 nM

Continued, values first:

EC50 | Compound
< 200 nM | Cc1nc2c(F)cc(C(=O)NC[C@](O)(c3cc4c(c(-c5ccc(F)cc5)n3)OC[C@]4(C)C(N)=O)C(F)(F)F)cc2s1 [Example 15]
< 200 nM | C[C@]1(C(N)=O)COc2c1cc([C@@](O)(CNC(=O)c1ccc3nc(C4CC4)sc3c1)C(F)(F)F)nc2-c1ccc(F)c(Cl)c1 [Example 18]
< 200 nM | C[C@]1(C(N)=O)COc2c1cc([C@@](O)(CNC(=O)c1cnc3nc(C4CC4)sc3c1)C(F)(F)F)nc2-c1ccc(F)cc1 [Example 21]
< 200 nM | CC(C)(O)CNC(=O)[C@@]1(C)COc2c1cc([C@@](O)(CNC(=O)c1ccc3c(c1)CN(C1CC1)C3=O)C(F)(F)F)nc2-c1ccc(F)cc1 [Example 35]
< 200 nM | CCN1Cc2cc(C(=O)NC[C@](O)(c3cc4c(c(-c5ccc(F)cc5)n3)OC[C@]4(C)C(N)=O)C(F)(F)F)ccc2C1=O [Example 36]
< 200 nM | COc1cc(C(=O)NC[C@](O)(c2cc3c(c(-c4ccc(F)c(Cl)c4)n2)OC[C@]3(C)C(N)=O)C(F)(F)F)cc2cn(C(F)F)nc12 [Example 46]
< 200 nM | COc1cc(C(=O)NC[C@](O)(c2cc3c(c(-c4ccc(F)cc4)n2)OC[C@]3(C)C(N)=O)C(F)(F)F)cn2cc(C(N)=O)nc12 [Example 61]
< 200 nM | C[C@]1(C(N)=O)COc2c1cc([C@@](O)(CNC(=O)c1ccn3nc(C4CC4)cc3c1)C(F)(F)F)nc2-c1ccc(F)c(Cl)c1 [Example 67]
< 200 nM | C[C@]1(C(N)=O)COc2c1cc([C@@](O)(CNC(=O)c1ccc3ncc(C(F)(F)F)cc3c1)C(F)(F)F)nc2-c1ccc(F)cc1 [Example 69]
< 200 nM | COc1cc(C(=O)NC[C@](O)(c2cc3c(c(-c4ccc(F)cc4)n2)OC[C@]3(C)C(N)=O)C(F)(F)F)cc2cc3c(nc12)CCC3 [Example 71]
< 200 nM | C[C@]1(C(N)=O)COc2c1cc([C@@](O)(CNC(=O)c1ccn3nc(N)cc3c1)C(F)(F)F)nc2-c1ccc(F)cc1 [Example 87]
< 200 nM | C[C@]1(C(N)=O)COc2c1cc([C@@](O)(CNC(=O)c1ccn3nc(C4CC4)cc3c1)C(F)(F)F)nc2-c1ccc(F)cc1 [Example 88]
< 200 nM | COc1cc(C(=O)NC[C@](O)(c2cc3c(c(-c4ccc(F)cc4)n2)OC[C@]3(C)C(N)=O)C(F)(F)F)cc2nc(N)oc12 [Example 89]
